Measured values as given in PubChem BioAssay (NCI).
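GI50 marks 50% less growth. TGI: concentration producing complete growth inhibition.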

Assays:
Test in all cases: NCI anticancer screen, dose series, 384-well format
NCI-H226 lung = tested on: NCI-H226 lung
MDA-MB-468 breast = tested on: MDA-MB-468 breast
ACHN renal = tested on: ACHN renal
NCI-H460 NSCLC = tested on: NCI-H460 NSCLC
HCT-116 colon = tested on: HCT-116 colon
T-47D breast = tested on: T-47D breast
SK-MEL-5 melanoma = tested on: SK-MEL-5 melanoma
M14 melanoma = tested on: M14 melanoma
MALME-3M melanoma = tested on: MALME-3M melanoma
COLO 205 colon = tested on: COLO 205 colon
PC-3 prostate = tested on: PC-3 prostate
OVCAR-4 ovarian = tested on: OVCAR-4 ovarian
TK-10 renal = tested on: TK-10 renal
RPMI-8226 leukemia = tested on: RPMI-8226 leukemia
A549 NSCLC = tested on: A549 NSCLC
SNB-19 CNS = tested on: SNB-19 CNS
SF-268 CNS = tested on: SF-268 CNS
SN12C renal = tested on: SN12C renal
RXF 393 renal = tested on: RXF 393 renal
CAKI-1 renal = tested on: CAKI-1 renal
SW-620 colon = tested on: SW-620 colon
HOP-92 NSCLC = tested on: HOP-92 NSCLC
OVCAR-5 ovarian = tested on: OVCAR-5 ovarian
CCRF-CEM leukemia = tested on: CCRF-CEM leukemia
MCF7 breast = tested on: MCF7 breast
SK-OV-3 ovarian = tested on: SK-OV-3 ovarian
OVCAR-8 ovarian = tested on: OVCAR-8 ovarian
SK-MEL-28 melanoma = tested on: SK-MEL-28 melanoma

Q: What does the source list for CCN1C(C)(C)CC(Oc2ccc(C(=O)Nc3ccc(NC(=O)Nc4cc(C(C)(C)C)on4)cc3)nc2)CC1(C)C?
A: GI50 (NCI-H226 lung): 1680 nM; TGI (NCI-H226 lung): 3080 nM; GI50 (MDA-MB-468 breast): 2030 nM; TGI (MDA-MB-468 breast): 3560 nM; GI50 (ACHN renal): 1750 nM; TGI (ACHN renal): 3200 nM; GI50 (NCI-H460 NSCLC): 1800 nM; TGI (NCI-H460 NSCLC): 3240 nM; GI50 (HCT-116 colon): 1630 nM; TGI (HCT-116 colon): 3010 nM; GI50 (T-47D breast): 1430 nM; TGI (T-47D breast): 2790 nM; GI50 (SK-MEL-5 melanoma): 1520 nM; TGI (SK-MEL-5 melanoma): 2860 nM; GI50 (M14 melanoma): 1710 nM; TGI (M14 melanoma): 3090 nM; GI50 (MALME-3M melanoma): 1410 nM; TGI (MALME-3M melanoma): 2720 nM; GI50 (COLO 205 colon): 1790 nM; TGI (COLO 205 colon): 3200 nM; GI50 (PC-3 prostate): 1950 nM; TGI (PC-3 prostate): 3500 nM; GI50 (OVCAR-4 ovarian): 1560 nM; TGI (OVCAR-4 ovarian): 3770 nM; GI50 (TK-10 renal): 1920 nM; TGI (TK-10 renal): 3870 nM; GI50 (RPMI-8226 leukemia): 654 nM; TGI (RPMI-8226 leukemia): 1750 nM; GI50 (A549 NSCLC): 1830 nM; TGI (A549 NSCLC): 3320 nM; GI50 (SNB-19 CNS): 1980 nM; TGI (SNB-19 CNS): 3480 nM; GI50 (SF-268 CNS): 1680 nM; TGI (SF-268 CNS): 3110 nM; GI50 (SN12C renal): 1710 nM; TGI (SN12C renal): 3090 nM; GI50 (RXF 393 renal): 384 nM; TGI (RXF 393 renal): 1470 nM; GI50 (CAKI-1 renal): 1620 nM; TGI (CAKI-1 renal): 3220 nM; GI50 (SW-620 colon): 1940 nM; TGI (SW-620 colon): 3380 nM; GI50 (HOP-92 NSCLC): 1650 nM; TGI (HOP-92 NSCLC): 3160 nM; GI50 (OVCAR-5 ovarian): 2080 nM; TGI (OVCAR-5 ovarian): 3840 nM; GI50 (CCRF-CEM leukemia): 1800 nM; TGI (CCRF-CEM leukemia): 3200 nM; GI50 (MCF7 breast): 1550 nM; TGI (MCF7 breast): 2910 nM; GI50 (SK-OV-3 ovarian): 1710 nM; TGI (SK-OV-3 ovarian): 3100 nM; GI50 (OVCAR-8 ovarian): 1770 nM; TGI (OVCAR-8 ovarian): 3190 nM; GI50 (SK-MEL-28 melanoma): 1580 nM; TGI (SK-MEL-28 melanoma): 2940 nM
